From patent publication US8871738B2, “Fused bicyclic oxazolidinone CETP inhibitor” (Merck Sharp & Dohme Corp., priority 2011, dated 2014) come the findings set out here.

The target of one test is endogenous CETP from serum (Homo sapiens (Human), UniProt P11597). Description: RTA assay in 95% human serum (CETP-catalyzed CE and TG transfer, endogenous CETP). Format: biochemical. As to conditions: RTA assay in 95% human serum; read-out: IC50.
endogenous CETP from serum, sequence (P11597 18-493 limits assumed): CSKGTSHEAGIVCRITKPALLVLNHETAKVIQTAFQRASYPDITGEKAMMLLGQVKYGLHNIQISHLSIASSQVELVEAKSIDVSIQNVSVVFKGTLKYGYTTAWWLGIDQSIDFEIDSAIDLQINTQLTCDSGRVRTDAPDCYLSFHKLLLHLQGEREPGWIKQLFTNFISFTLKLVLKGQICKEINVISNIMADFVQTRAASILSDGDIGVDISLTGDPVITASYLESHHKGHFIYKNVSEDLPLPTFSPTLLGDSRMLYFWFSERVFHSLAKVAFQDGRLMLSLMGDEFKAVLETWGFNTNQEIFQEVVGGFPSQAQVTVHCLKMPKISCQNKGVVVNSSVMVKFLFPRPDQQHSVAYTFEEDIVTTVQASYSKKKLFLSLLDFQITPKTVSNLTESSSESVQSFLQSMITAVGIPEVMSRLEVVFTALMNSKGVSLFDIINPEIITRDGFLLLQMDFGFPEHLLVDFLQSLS
Consider `COC(=O)c1ccc(-c2cc(-c3ccc(C(F)(F)F)cc3[C@@H]3CC[C@H]4[C@@H](c5cc(C(F)(F)F)cc(C(F)(F)F)c5)OC(=O)N34)c(OC)cc2F)c(C)c1` [Example 6, methyl 2″-{(1R,5S,7aS)-1-[3,5-bis(trifluoromethyl)phenyl]-3-oxotetrahydro-1H-pyrrolo[1,2-c][1,3]oxazol-5-yl}-6′-fluoro-4′-methoxy-2-methyl-4″- (trifluoromethyl)-1,1′:3′,1″- terphenyl-4-carboxylate], for which the IC50 was determined as 641 nM.

Regarding `COc1ccc(C#N)cc1-c1ccc(C(F)(F)F)cc1[C@@H]1CC[C@H]2[C@@H](c3cc(C(F)(F)F)cc(C(F)(F)F)c3)OC(=O)N12` [Example 9, 2′-{(1R,5S,7aS)-1-[3,5-bis(trifluoromethyl)phenyl]-3-oxotetrahydro-1H-pyrrolo[1,2-c][1,3]oxazol-5-yl}-6-methoxy-4′-(trifluoromethyl)biphenyl-3-carbonitrile], the IC50 stood at 224 nM.

On to `COc1ncc(C(F)(F)F)cc1-c1ccc(C(F)(F)F)cc1[C@@H]1CC[C@H]2[C@@H](c3cc(C(F)(F)F)cc(C(F)(F)F)c3)OC(=O)N12` [Example 10, (1R,5S,7aS)-1-[3,5-bis(trifluoromethyl)phenyl]-5-{2-[2-methoxy-5-(trifluoromethyl)pyridin-3-yl]-5-(trifluoromethyl)phenyl}tetrahydro-1H-pyrrolo[1,2-c][1,3]oxazol-3-one], for which the IC50 came out at 371 nM.

In the case of `COc1ncc(Cl)cc1-c1ccc(C(F)(F)F)cc1[C@@H]1CC[C@H]2[C@@H](c3cc(C(F)(F)F)cc(C(F)(F)F)c3)OC(=O)N12` [Example 11, (1R,5S,7aS)-1-[3,5-bis(trifluoromethyl)phenyl]-5-[2-(5-chloro-2-methoxypyridin-3-yl)-5-(trifluoromethyl)phenyl]tetrahydro-1H-pyrrolo[1,2-c][1,3]oxazol-3-one], the IC50 came out at 294 nM.

With `N#Cc1cscc1-c1ccc(C(F)(F)F)cc1[C@@H]1CC[C@H]2[C@@H](c3cc(C(F)(F)F)cc(C(F)(F)F)c3)OC(=O)N12` [Example 12, 4-[2-{(1R,5S,7aS)-1-[3,5-bis(trifluoromethyl)phenyl]-3-oxotetrahydro-1H-pyrrolo[1,2-c][1,3]oxazol-5-yl}-4-(trifluoromethyl)phenyl]thiophene-3-carbonitrile], the IC50 turned out to be 266 nM.

As for `COc1ccc(C)cc1-c1ccc(C(F)(F)F)cc1[C@@H]1CC[C@H]2[C@@H](c3cc(C(F)(F)F)cc(C(F)(F)F)c3)OC(=O)N12` [Example 13, (1R,5S,7aS)-1-[3,5-bis(trifluoromethyl)phenyl]-5-[2′-methoxy-5′-methyl-4-(trifluoromethyl)biphenyl-2-yl]tetrahydro-1H-pyrrolo[1,2-c][1,3]oxazol-3-one], the IC50 is 263 nM.

In the case of `COc1ccc(Cl)cc1-c1ccc(C(F)(F)F)cc1[C@@H]1CC[C@H]2[C@@H](c3cc(C(F)(F)F)cc(C(F)(F)F)c3)OC(=O)N12` [Example 14, (1R,5S,7aS)-1-[3,5-bis(trifluoromethyl)phenyl]-5-[5′-chloro-2′-methoxy-4-(trifluoromethyl)biphenyl-2-yl]tetrahydro-1H-pyrrolo[1,2-c][1,3]oxazol-3-one], the IC50 was 233 nM.

Take `O=C1O[C@H](c2cc(C(F)(F)F)cc(C(F)(F)F)c2)[C@@H]2CC[C@@H](c3cc(C(F)(F)F)ccc3-c3ccccc3Cl)N12` [Example 15, (1R,5S,7aS)-1-[3,5-bis(trifluoromethyl)phenyl]-5-[2′-chloro-4-(trifluoromethyl)biphenyl-2-yl]tetrahydro-1H-pyrrolo[1,2-c][1,3]oxazol-3-one]: the IC50 stood at 453 nM.

Regarding `Cc1cocc1-c1ccc(C(F)(F)F)cc1[C@@H]1CC[C@H]2[C@@H](c3cc(C(F)(F)F)cc(C(F)(F)F)c3)OC(=O)N12` [Example 16, (1R,5S,7aS)-1-[3,5-bis(trifluoromethyl)phenyl]-5-[2-(4-methylfuran-3-yl)-5-(trifluoromethyl)phenyl]tetrahydro-1H-pyrrolo[1,2-c][1,3]oxazol-3-one], the IC50 came to 343 nM.

In the case of `O=C1O[C@H](c2cc(C(F)(F)F)cc(C(F)(F)F)c2)[C@@H]2CC[C@@H](c3cc(C(F)(F)F)ccc3C3=CCCCC3)N12` [Example 17, (1R,5S,7aS)-1-[3,5-bis(trifluoromethyl)phenyl]-5-[2-cyclohex-1-en-1-yl-5-(trifluoromethyl)phenyl]tetrahydro-1H-pyrrolo[1,2-c][1,3]oxazol-3-one], the IC50 is 73.6 nM.

`O=C1O[C@H](c2cc(C(F)(F)F)cc(C(F)(F)F)c2)[C@@H]2CC[C@@H](c3cc(C(F)(F)F)ccc3-c3ccsc3)N12` [Example 18, (1R,5S,7aS)-1-[3,5-bis(trifluoromethyl)phenyl]-5-[2-thiophen-3-yl-5-(trifluoromethyl)phenyl]tetrahydro-1H-pyrrolo[1,2-c][1,3]oxazol-3-one]: the IC50 came out at 103 nM.

Consider `COc1ccc(F)cc1-c1ccc(C(F)(F)F)cc1[C@@H]1CC[C@H]2[C@@H](c3cc(C(F)(F)F)cc(C(F)(F)F)c3)OC(=O)N12` [Example 19, (1R,5S,7aS)-1-[3,5-bis(trifluoromethyl)phenyl]-5-[5′-fluoro-2′-methoxy-4-(trifluoromethyl)biphenyl-2-yl]tetrahydro-1H-pyrrolo[1,2-c][1,3]oxazol-3-one], for which the IC50 is 166 nM.

`COc1ncccc1-c1ccc(C(F)(F)F)cc1[C@@H]1CC[C@H]2[C@@H](c3cc(C(F)(F)F)cc(C(F)(F)F)c3)OC(=O)N12` [Example 21, (1R,5S,7aS)-1-[3,5-bis(trifluoromethyl)phenyl]-5-[2-(2-methoxypyridin-3-yl)-5-(trifluoromethyl)phenyl]tetrahydro-1H-pyrrolo[1,2-c][1,3]oxazol-3-one]: the IC50 amounted to 316 nM.

For the compound `O=C1O[C@H](c2cc(C(F)(F)F)cc(C(F)(F)F)c2)[C@@H]2CC[C@@H](c3cc(C(F)(F)F)ccc3C3=CCCC3)N12` [Example 22, (1R,5S,7aS)-1-[3,5-bis(trifluoromethyl)phenyl]-5-[2-cyclopent-1-en-1-yl-5-(trifluoromethyl)phenyl]tetrahydro-1H-pyrrolo[1,2-c][1,3]oxazol-3-one], the IC50 worked out at 56.6 nM.

`O=C1O[C@H](c2cc(C(F)(F)F)cc(C(F)(F)F)c2)[C@@H]2CC[C@@H](c3cc(C(F)(F)F)ccc3-c3cc(Cl)ccc3F)N12` [Example 23, (1R,5S,7aS)-1-[3,5-bis(trifluoromethyl)phenyl]-5-[5′-chloro-2′-fluoro-4-(trifluoromethyl)biphenyl-2-yl]tetrahydro-1H-pyrrolo[1,2-c][1,3]oxazol-3-one]: the IC50 is 188 nM.

Still in this test, the particulars now being: RTA assay, 95% human serum; read-out: RTA (95% HS).
For the compound `COC(=O)CCc1ccc(OC)c(-c2ccc(C(F)(F)F)cc2[C@@H]2CC[C@H]3[C@@H](c4cc(C(F)(F)F)cc(C(F)(F)F)c4)OC(=O)N23)c1` [Example 1, Methyl 3-[2′-{(1R,5S,7aS)-1-[3,5-bis(trifluoromethyl)phenyl]-3-oxotetrahydro-1H-pyrrolo[1,2-c][1,3]oxazol-5-yl}-6-methoxy-4′-(trifluoromethyl)biphenyl-3-yl]propanoate], the IC50 was 296 nM.

`COc1ccc([C@H]2[C@H](C)NC(=O)[C@@H]2C)cc1-c1ccc(C(F)(F)F)cc1[C@@H]1CC[C@H]2[C@@H](c3cc(C(F)(F)F)cc(C(F)(F)F)c3)OC(=O)N12` [Example 4, (1R,5S,7aS)-1-(3,5-bis(trifluoromethyl)phenyl)-5-(5′-((2S,3S,4R)-2,4-dimethyl-5-oxopyrrolidin-3-yl)-2′-methoxy-4-(trifluoromethyl)-[1,1′-biphenyl]-2-yl)tetrahydropyrrolo[1,2-c]oxazol-3(1H)one]: the IC50 turned out to be 398 nM.
